Measured values as given in PMC12304285 (British Journal of Cancer, 2025).
“And” between values parts separate entries of the source, which are not always exact repeats. Equal values may be shown once. “Also recorded” adds a separate entry of the source. Read-outs that look alike come from different tables or passages of the source.

What was measured:
[1] = system: patients with advanced cancer
Experimental: A single dose was administered during Cycle 0 and was followed by a drug washout period lasting 3–7 days. […] If either of these conditions was not met, the cohort would be expanded to a minimum of 3, and up to 6, patients in all subsequent cohorts. A Bayesian adaptive design, using all of the available data and considering the pharmacokinetics (PK) from a minimum of 2 or 3 patients enrolled into each dose cohort, was used from this point. Dose escalation was scheduled to be stopped at the maximum tolerated dose (MTD) (defined as 25% of patients in a cohort experiencing a dose-limiting toxicity [DLT] with the required precision [ratio of upper and lower 95% credible limits <5.0]), the maximum feasible dose (MFD) or the recommended Phase II dose (RP2D). Intra-patient dose escalation was permitted as long as predefined criteria were met, including that the planned next higher dose had to be declared tolerated by the SRC based on assessment of 2–6 evaluable patients.
The starting dose of PLD was 40 mg/m^2 intravenously once every 28 days for a maximum of 6 cycles. PLD dose could be escalated to 50 mg/m^2 or de-escalated to 30 mg/m^2 every 28 days with agreement from the SRC. […] Dose escalation was scheduled to be stopped at the MTD (defined as 30% of patients in a cohort experiencing a DLT with the required precision [ratio of upper and lower 95% credible limits <5.0]). Approximately 30 evaluable patients across five cohorts (n = 3–6 per cohort) were originally planned to provide an estimate of MTD.
Definitions of dose-limiting toxicity
DLTs were evaluated during Cycle 0 and Cycle 1 of treatment. Toxicity was graded according to the National Cancer Institute CTCAE v5.0.
A DLT was defined as an AE that occurs from the first dose of study treatment up to and including Cycle 1, Day 28 (the DLT assessment period) that is assessed as unrelated to the disease, intercurrent illness, or concomitant medications and that, despite optimal therapeutic interventions, meets any of the following criteria:
Haematological Toxicities:
• Grade 4 neutropenia lasting >4 days.
• Grade 4 thrombocytopenia.
• Grade 3 neutropenia (ANC ≥500 to <1000 cells/mm3) of any duration accompanied by fever ≥38.5 °C and/or systemic infection.
• Grade 3 thrombocytopenia (25,000 to <50,000/mm3) with bleeding
Non-haematological toxicities:
• Confirmed laboratory abnormalities
• Nausea or vomiting for more than three consecutive days despite administration of maximal anti-emetic therapy
• Diarrhoea for more than three consecutive days despite administration of maximal anti- […]
• QTc prolongation >500 milliseconds or QTcF prolongation from baseline by 60 milliseconds confirmed on at least two separate ECGs
• Any other toxicity that is greater than at baseline AND is clinically significant and/or […]
AND is judged to be a DLT by the SRC
• Any treatment-related event, including significant dose reductions, omissions or delays, judged to be a DLT by the SRC. Examples may include CTCAE Grade 2 toxicities that are clinically significant and/or unacceptable according to the investigator, toxicities that […]
the administration of study treatment in the subsequent cycle by ≥7 consecutive days DLT will not include the following:
• Transient isolated laboratory abnormalities which are not considered clinically significant and resolve to baseline within 72 hours without any intervention […]
• Toxicity unrelated to treatment e.g., related to the underlying disease or disease-related

[2] = system: patients with advanced cancer; test: Preliminary antitumour activity by RECIST v1.1 (best objective response, target lesion change, PFS);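 also: same imaging modality as baseline kept at every follow-up, response-evaluable patients had ≥1 measurable non-irradiated target lesion ≥10 mm longest diameter and received ≥1 study dose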
Experimental: The imaging method used at baseline had to be used at all follow-up visits. The following parameters were estimated: percentage best change in target lesion; duration of response; objective response rate (ORR); and progression-free survival (PFS).
Descriptive statistics were used for all variables, as appropriate, and calculated only when n ≥ 3. Where data were available for <3 patients, only minimum, maximum and number of observations were provided. Percentages were calculated using the analysis set total and for modules or doses, unless otherwise stated. […] PFS, including median time to PFS and PFS rate at a specific timepoint, was summarized using the Kaplan–Meier method. SAS® version 9.4 was used for all analyses. The PK analysis set included dosed patients for whom an adequate PK profile was obtained.

[3] = 12 patients evaluable for objective response

## Cc1cc2ncnn2cc1Nc1ncc2c(n1)n(C1CCOCC1)c(=O)n2C [AZD7648, 7-Methyl-2-[(7-methyl[1,2,4]triazolo[1,5-a]pyridin-6-yl)amino]-9-(tetrahydro-2H-pyran-4-yl)-7,9-dihydro-8H-purin-8-one]
[1]; 5 mg BID (n = 1)
  Any AE leading to death: 0 n (%)
  Any AZD7648-related AE leading to death: 0 n (%)
[1]; 5 mg QD (n = 1)
  Any AE leading to death: 0 n (%)
  Any AZD7648-related AE leading to death: 0 n (%)
[1]; 10 mg BID (n = 1)
  Any AE leading to death: 0 n (%)
  Any AZD7648-related AE leading to death: 0 n (%)
[1]; 20 mg BID (n = 1)
  Any AE leading to death: 0 n (%)
  Any AZD7648-related AE leading to death: 0 n (%)
[1]; 40 mg BID (n=3)
  Any AE leading to death: 0 n (%)
  Any AZD7648-related AE leading to death: 0 n (%)
[1]; 80 mg BID (n = 4)
  Any AE leading to death: 1 (25.0) n (%)
  Any AZD7648-related AE leading to death: 0 n (%)
[1]; 160 mg BID (n=3)
  Any AE leading to death: 0 n (%)
  Any AZD7648-related AE leading to death: 0 n (%)
[1]; Any grade
  TEAE Anaemia: 4 (28.6) n (%)
  TEAE Diarrhoea: 4 (28.6) n (%)
  TEAE Nausea: 4 (28.6) n (%)
  TEAE Neutropenia: 2 (14.3) n (%)
  TEAE Urinary tract infection: 2 (14.3) n (%)
  TEAE Vomiting: 4 (28.6) n (%)
[1]; all dose levels
  Any treatment-related grade 3/4 AE, related to AZD7648: 4 (28.6) n (%)
  Death: 4 (28.6) n (%)
  patients with nausea: 28.6% and ~ 30%
  patients with neutropenia: 14.3%
  patients with vomiting: 28.6% and ~ 30%
[1]; human, in vivo
  Any AE: 12 (85.7) n (%)
  Any DLT: 1 (7.1) n (%)
  Any SAE: 5 (35.7) n (%)
  TEAE Anaemia: 1 (7.1) n (%)
  TEAE Diarrhoea: 1 (7.1) n (%)
  TEAE Nausea: 0 n (%)
  TEAE Neutropenia: 1 (7.1) n (%)
  TEAE Urinary tract infection: 0 n (%)
  TEAE Vomiting: 0 n (%)
  patients with gastrointestinal disorders: 64.3%
[1]; human, in vivo, 2.9 months
  patients who experienced TEAEs: 85.7%
  patients with abdominal pain: ~ 20%
  patients with decreased appetite: ~ 20%
  patients with fatigue: ~ 20%
[1]; monotherapy, escalation paused at 160 mg BID continuous dosing
  maximum tolerated dose (MTD): an MTD could not be declared
[1]; one patient, AZD7648 160 mg BID
  DLT reported (nature): grade 4 increased alanine aminotransferase (ALT) and aspartate aminotransferase (AST)
[2]; 5 mg BID (n = 1)
  Best objective response: Complete response: 0 n (%)
  Best objective response: Death: 0 n (%)
  Best objective response: Disease progression: 1 (100.0) n (%)
  Best objective response: Not evaluable: 0 n (%)
  Best objective response: Partial response: 0 n (%)
  Best objective response: Stable disease: 0 n (%)
[2]; 5 mg QD (n = 1)
  Best objective response: Complete response: 0 n (%)
  Best objective response: Death: 0 n (%)
  Best objective response: Disease progression: 0 n (%)
  Best objective response: Not evaluable: 0 n (%)
  Best objective response: Partial response: 0 n (%)
  Best objective response: Stable disease: 1 (100.0) n (%)
[2]; 10 mg BID (n = 1)
  Best objective response: Complete response: 0 n (%)
  Best objective response: Death: 0 n (%)
  Best objective response: Disease progression: 0 n (%)
  Best objective response: Not evaluable: 0 n (%)
  Best objective response: Partial response: 0 n (%)
  Best objective response: Stable disease: 1 (100.0) n (%)
[2]; 20 mg BID (n = 1)
  Best objective response: Complete response: 0 n (%)
  Best objective response: Death: 0 n (%)
  Best objective response: Disease progression: 1 (100.0) n (%)
  Best objective response: Not evaluable: 0 n (%)
  Best objective response: Partial response: 0 n (%)
  Best objective response: Stable disease: 0 n (%)
[2]; 40 mg BID (n = 2)
  Best objective response: Complete response: 0 n (%)
  Best objective response: Death: 1 (50.0) n (%)
  Best objective response: Disease progression: 1 (50.0) n (%)
  Best objective response: Not evaluable: 0 n (%)
  Best objective response: Partial response: 0 n (%)
  Best objective response: Stable disease: 0 n (%)
[2]; 80 mg BID (n = 4)
  Best objective response: Complete response: 0 n (%)
  Best objective response: Death: 1 (25.0) n (%)
  Best objective response: Disease progression: 1 (25.0) n (%)
  Best objective response: Not evaluable: 1 (25.0) n (%)
  Best objective response: Partial response: 0 n (%)
  Best objective response: Stable disease: 1 (25.0) n (%)
[2]; 160 mg BID (n = 2)
  Best objective response: Complete response: 0 n (%)
  Best objective response: Death: 0 n (%)
  Best objective response: Disease progression: 1 (50.0) n (%)
  Best objective response: Not evaluable: 0 n (%)
  Best objective response: Partial response: 0 n (%)
  Best objective response: Stable disease: 1 (50.0) n (%)
[2]; [3]
  patients who died due to disease progression: 16.7%
  patients with RECIST disease progression: 41.7%
  patients with RECIST stable disease: 33.3%
[2]; All cohorts of the module
  Best objective response: Complete response: 0 n (%)
  Best objective response: Death: 2 (16.7) n (%)
  Best objective response: Disease progression: 5 (41.7) n (%)
  Best objective response: Not evaluable: 1 (8.3) n (%)
  Best objective response: Partial response: 0 n (%)
  Best objective response: Stable disease: 4 (33.3) n (%)
[2]; Kaplan–Meier, all dose levels
  Median PFS: 1.91 months
  PFS rate at 6 months: 23.08%
[2]; all dose levels
  RECIST response observed: No responses; also recorded: No patient had a RECIST complete or partial response
[2]; one patient with stable disease, 80 mg BID
  percentage change in target lesion size from baseline: −29.2%
[2]; single patient
  best percentage change from baseline in target lesion size, increase of the patient capped in the waterfall plot: 108.33%
